Test results: PMC11620503 (Antimicrobial Agents and Chemotherapy, 2024)
Values after ≈ are worked out from the molar mass of the structure shown. Read-outs that look alike come from different tables or passages of the source.

How the values were obtained:
[1] = test system: 207 Enterobacterales including carbapenem-resistant isolates; assay: MIC, broth microdilution; assay type: cell-based
[2] = test system: MEM-nonsusceptible Enterobacterales; assay: MIC, broth microdilution; assay type: cell-based; details: MEM-nonsusceptible Enterobacterales (127), cefiderocol 126 isolates
[3] = test system: serine-carbapenemase-producing isolates (Enterobacterales); assay: MIC, broth microdilution; assay type: cell-based; details: Enterobacterales with serine-carbapenemases (80)
[4] = test system: MBL-producing isolates (Enterobacterales); assay: MIC, broth microdilution; assay type: cell-based; details: Enterobacterales with metallo-carbapenemases (74), cefiderocol 73 isolates
[5] = test system: 55 isolates of A. baumannii; assay: MIC, broth microdilution; assay type: cell-based, Acinetobacter baumannii; details: Acinetobacter baumannii (55)
96 P. aeruginosa = assay: MIC, broth microdilution; assay type: cell-based, Pseudomonas aeruginosa; details: Pseudomonas aeruginosa (96)
[6] = test system: MEM-, imipenem/relebactam-, and ceftolozane/tazobactam-nonsusceptible P. aeruginosa; assay: MIC, broth microdilution; assay type: cell-based, Pseudomonas aeruginosa; details: for CLSI MIC interpretation I (intermediate) / CLSI MIC interpretation R (resistant) / CLSI MIC interpretation S (susceptible): CLSI breakpoints, marked c: breakpoints for β-lactam alone; for MIC50 / MIC90: Pseudomonas aeruginosa, fixed concentration (μg/mL) in label; for MIC50: read-out: MIC50; for MIC90: read-out: MIC90
[7] = test system: Serine-carbapenemase-producing Enterobacterales (6); assay: MIC and MBC testing; assay type: cell-based; details: 6 serine-carbapenemase-producing Enterobacterales; fixed BLI concentration (μg/mL) in label
[8] = test system: Metallo-carbapenemase-producing Enterobacterales (11); assay: MIC and MBC testing; assay type: cell-based; details: 11 metallo-carbapenemase-producing Enterobacterales; fixed BLI concentration (μg/mL) in label
[9] = test system: Carbapenemase-producing A. baumannii (4); assay: MIC and MBC testing; assay type: cell-based, Acinetobacter baumannii; details: 4 carbapenemase-producing A. baumannii; fixed BLI concentration (μg/mL) in label; text: MBC/MIC ratios
[10] = test system: MEM-nonsusceptible Enterobacterales with serine-carbapenemases; assay: MIC, broth microdilution; assay type: cell-based; details: MEM-nonsusceptible Enterobacterales with serine-carbapenemases (58)
[11] = test system: MEM-nonsusceptible Enterobacterales with metallo-carbapenemases; assay: MIC, broth microdilution; assay type: cell-based; details: MEM-nonsusceptible Enterobacterales with metallo-carbapenemases (55), cefiderocol 54 isolates
CTX-M-14 = CTX-M-14 (Escherichia coli, UniProt Q9L5C7); assay: Ki app determination (Waley's method); details: read-out: Ki app; CTX-M-14; means from three independent studies
CTX-M-15 = CTX-M-15 (Escherichia coli, UniProt Q9EXV5); assay: Ki app determination (Waley's method); details: read-out: Ki app; CTX-M-15; means from three independent studies
CTX-M-27 = CTX-M-27 (Escherichia coli, UniProt Q840M4); assay: Ki app determination (Waley's method); details: read-out: Ki app; CTX-M-27; means from three independent studies
SHV-2 = SHV-2 (Klebsiella pneumoniae, UniProt P0A9Z8); assay: Ki app determination (Waley's method); details: read-out: Ki app; SHV-2; means from three independent studies
SHV-5 = SHV-5 (Klebsiella pneumoniae, UniProt P0A3M1); assay: Ki app determination (Waley's method); details: read-out: Ki app; SHV-5; means from three independent studies
SHV-12 = SHV-12 (Klebsiella pneumoniae, UniProt P0A3M1, L31Q); assay: Ki app determination (Waley's method); details: read-out: Ki app; SHV-12; means from three independent studies
ACT-17 = ACT-17 (Enterobacter cloacae complex, UniProt Q8KP20); assay: Ki app determination (Waley's method); details: read-out: Ki app, means from three independent studies
PDC-11 = PDC-11 (Pseudomonas aeruginosa, UniProt P24735, form not given, species not given); assay: Ki app determination (Waley's method); details: read-out: Ki app, means from three independent studies
KPC-2 = KPC-2 (Klebsiella pneumoniae, UniProt Q9F663); assay: Ki app determination (Waley's method); details: read-out: Ki app; KPC-2; means from three independent studies
KPC-3 = KPC-3 (Klebsiella pneumoniae, UniProt Q9F663, H272Y); assay: Ki app determination (Waley's method); details: read-out: Ki app; KPC-3; means from three independent studies
KPC-38 = KPC-38 (Klebsiella pneumoniae, UniProt Q9F663); assay: Ki app determination (Waley's method); details: read-out: Ki app, means from three independent studies
OXA-48 = OXA-48 (Klebsiella pneumoniae, UniProt Q6XEC0); assay: Ki app determination (Waley's method); details: read-out: Ki app; OXA-48; means from three independent studies
OXA-23 = OXA-23 (Acinetobacter baumannii, UniProt Q9L4P2); assay: Ki app determination (Waley's method); details: read-out: Ki app; OXA-23; means from three independent studies
OXA-24 = OXA-24 (Acinetobacter baumannii, UniProt Q8RLA6); assay: Ki app determination (Waley's method); details: read-out: Ki app; OXA-24; means from three independent studies
OXA-65 = OXA-65 (Acinetobacter baumannii, UniProt Q58XD3); assay: Ki app determination (Waley's method); details: read-out: Ki app; OXA-65; means from three independent studies
OXA-66 = OXA-66 (Acinetobacter baumannii, UniProt Q58XD2); assay: Ki app determination (Waley's method); details: read-out: Ki app; OXA-66; means from three independent studies
OXA-72 = OXA-72 (Acinetobacter baumannii, UniProt Q5XQU0); assay: Ki app determination (Waley's method); details: read-out: Ki app; OXA-72; means from three independent studies
VIM-1 = VIM-1 (Pseudomonas aeruginosa, UniProt A0A0F7KYQ8); assay: Ki app determination (Waley's method); details: read-out: Ki app; VIM-1; means from three independent studies
VIM-2 = VIM-2 (Escherichia coli, UniProt Q5U7L7); assay: Ki app determination (Waley's method); details: read-out: Ki app; VIM-2; means from three independent studies
IMP-1 = IMP-1 (Serratia marcescens, UniProt P52699); assay: Ki app determination (Waley's method); details: read-out: Ki app; IMP-1; means from three independent studies
IMP-6 = IMP-6 (Serratia marcescens, UniProt P52699, S214G); assay: Ki app determination (Waley's method); details: read-out: Ki app; IMP-6; means from three independent studies
[12] = All Enterobacterales (207), cefiderocol 205 isolates, CLSI breakpoints, marked c: breakpoints for β-lactam alone, tigecycline: FDA breakpoints
[13] = CLSI breakpoints, marked c: breakpoints for β-lactam alone, tigecycline: FDA breakpoints
[14] = fixed concentration (μg/mL) in label, read-out: MIC50
[15] = fixed concentration (μg/mL) in label, read-out: MIC90
[16] = CLSI breakpoints, marked c: breakpoints for β-lactam alone
[17] = Ceftolozane/tazobactam-nonsusceptible Pseudomonas aeruginosa (45)
[18] = Imipenem/relebactam-nonsusceptible Pseudomonas aeruginosa (43)
[19] = MEM-nonsusceptible Pseudomonas aeruginosa (76)

With `CC(C)(O/N=C(\C(=O)N[C@@H]1C(=O)N2C(C(=O)[O-])=C(C[n+]3ccccc3)CS[C@H]12)c1csc(N)n1)C(=O)O` [CAZ, ceftazidime] the “CLSI MIC interpretation I (intermediate)” value [1, 12] was 2.4%, the “CLSI MIC interpretation R (resistant)” value [1, 12] was 82.1% and the “CLSI MIC interpretation S (susceptible)” value [1, 12] was 15.5%. The MIC50 ([1]; read-out: MIC50) was over 32 µg/mL, the MIC90 ([1]; read-out: MIC90) was over 32 µg/mL and the “CLSI MIC interpretation I (intermediate)” value [2, 13] was 3.1%. The “CLSI MIC interpretation R (resistant)” value [2, 13] was 87.4%, the “CLSI MIC interpretation S (susceptible)” value [2, 13] was 9.4% and the MIC50 [2, 14] was over 32 µg/mL. For the same compound, the MIC90 [2, 15] was over 32 µg/mL, the “CLSI MIC interpretation I (intermediate)” value [3, 13] was 2.5% and the “CLSI MIC interpretation R (resistant)” value [3, 13] was 73.8%. The “CLSI MIC interpretation S (susceptible)” value [3, 13] was 23.8%, the MIC50 [3, 14] was over 32 µg/mL and the MIC90 [3, 15] was over 32 µg/mL. For the same compound, the “CLSI MIC interpretation I (intermediate)” value [4, 13] was 0%, the “CLSI MIC interpretation R (resistant)” value [4, 13] was 98.6% and the “CLSI MIC interpretation S (susceptible)” value [4, 13] was 1.4%. For the same compound, the MIC50 [4, 14] was over 32 µg/mL, the MIC90 [4, 15] was over 32 µg/mL and the “CLSI MIC interpretation I (intermediate)” value [5, 16] was 1.8%. For the same compound, the “CLSI MIC interpretation R (resistant)” value [5, 16] was 94.5%, the “CLSI MIC interpretation S (susceptible)” value [5, 16] was 3.6% and the MIC50 [5, 14] was over 32 µg/mL. The MIC90 [5, 15] was over 32 µg/mL, the “CLSI MIC interpretation I (intermediate)” value (96 P. aeruginosa; [16]) was 6.3% and the “CLSI MIC interpretation R (resistant)” value (96 P. aeruginosa; [16]) was 56.3%. The “CLSI MIC interpretation S (susceptible)” value (96 P. aeruginosa; [16]) was 37.5%, the MIC50 (96 P. aeruginosa; [14]) was 32 µg/mL (≈ 58.5 µM) and the MIC90 (96 P. aeruginosa; [15]) was over 32 µg/mL. For the same compound, the “CLSI MIC interpretation I (intermediate)” value [6, 17] was 4.4%, the “CLSI MIC interpretation R (resistant)” value [6, 17] was 93.3% and the “CLSI MIC interpretation S (susceptible)” value [6, 17] was 2.2%. The “CLSI MIC interpretation I (intermediate)” value [6, 18] was 7%, the “CLSI MIC interpretation R (resistant)” value [6, 18] was 83.7% and the “CLSI MIC interpretation S (susceptible)” value [6, 18] was 9.3%. The “CLSI MIC interpretation I (intermediate)” value [6, 19] was 6.6%, the “CLSI MIC interpretation R (resistant)” value [6, 19] was 68.4% and the “CLSI MIC interpretation S (susceptible)” value [6, 19] was 25%. For the same compound, the MIC50 [6, 17] was over 32 µg/mL, the MIC90 [6, 17] was over 32 µg/mL and the MIC50 [6, 18] was over 32 µg/mL. For the same compound, the MIC90 [6, 18] was over 32 µg/mL, the MIC50 [6, 19] was 32 µg/mL (≈ 58.5 µM) and the MIC90 [6, 19] was over 32 µg/mL. The MIC/MBC range [7] was 1–256, the MIC/MBC range [8] was at least 1 and the MBC/MIC ratio range [9] was 1–2. The “CLSI MIC interpretation I (intermediate)” value [10, 13] was 1.7%, the “CLSI MIC interpretation R (resistant)” value [10, 13] was 82.8% and the “CLSI MIC interpretation S (susceptible)” value [10, 13] was 15.5%. The MIC50 [10, 14] was over 32 µg/mL, the MIC90 [10, 15] was over 32 µg/mL and the “CLSI MIC interpretation I (intermediate)” value [11, 13] was 0%. For the same compound, the “CLSI MIC interpretation R (resistant)” value [11, 13] was 98.2%, the “CLSI MIC interpretation S (susceptible)” value [11, 13] was 1.8% and the MIC50 [11, 14] was over 32 µg/mL. For the same compound, the MIC90 [11, 15] was over 32 µg/mL.
`NCCN[C@H]1CC[C@H](CC(=O)N[C@H]2Cc3cccc(C(=O)O)c3OB2O)CC1` [Tanibobactam, taniborbactam] was tested, and the Ki (CTX-M-14) was 0.0607 ± 0.0257 nM, the Ki (CTX-M-15) was 0.0245 ± 0.0103 nM and the Ki (CTX-M-27) was 0.0344 ± 0.013 nM. For the same compound, the Ki (SHV-2) was 20 ± 2.39 nM, the Ki (SHV-5) was 5.9 ± 1.8 nM and the Ki (SHV-12) was 4.73 ± 0.182 nM. For the same compound, the Ki (ACT-17) was 12.6 ± 1.55 nM, the Ki (PDC-11) was 34.6 ± 2.2 nM and the Ki (KPC-2) was 1.1 ± 0.229 nM. The Ki (KPC-3) was 0.947 ± 0.259 nM, the Ki (KPC-38) was 0.617 ± 0.0841 nM and the Ki (OXA-48) was 204 ± 31 nM. The Ki (OXA-23) was over 100000 nM, the Ki (OXA-24) was 2080 nM and the Ki (OXA-65) was over 100000 nM. The Ki (OXA-66) was 61700 nM, the Ki (OXA-72) was 25200 nM and the Ki (VIM-1) was 271 ± 46.7 nM. The Ki (VIM-2) was 322 ± 50 nM, the Ki (IMP-1) was over 100000 nM and the Ki (IMP-6) was over 100000 nM.
